Reference: patent US10251394B2, “Molecules having pesticidal utility, and intermediates, compositions, and processes, related thereto” (Dow AgroSciences LLC, priority 2016, dated 2019)

Key:
[1] = tested on: Beet Armyworm (Spodoptera exigua); experiment: Bioassay on Beet Armyworm (BAW), 128-well diet tray assay; assay type: in vivo; conditions: for pest or weed control at 50 µg/cm2: Beet Armyworm, Table ABC, read-out: BAW rating; for mortality at 0.05 µg/cm2 / mortality at 0.5 µg/cm2 / mortality at 5 µg/cm2: 168 h, second instar larvae, five to seven days, read-out: BAW Percent control (or mortality); for mortality at 0.05 µg/cm2: 0.05 μg/cm^2 on artificial diet; for mortality at 0.5 µg/cm2: 0.5 μg/cm^2 on artificial diet; for mortality at 5 µg/cm2: 5 μg/cm^2 on artificial diet
In short: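 Percent mortality, averaged over eight wells, was scored after five to seven days at 25° C under 14:10 light-dark. Each well's diet carried 50 μg/cm^2 of test molecule applied in acetone-water (90:10) and dried before one to five second-instar larvae were added.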

[2] = tested on: Cabbage Looper (Trichoplusia ni); experiment: Bioassay on Cabbage Looper (CL), 128-well diet tray assay; assay type: in vivo; conditions: for pest or weed control at 50 µg/cm2: Cabbage Looper, Table ABC, read-out: CL rating; for mortality at 0.05 µg/cm2 / mortality at 0.5 µg/cm2 / mortality at 5 µg/cm2: 168 h, second instar larvae, five to seven days, read-out: CL Percent control (or mortality); for mortality at 0.05 µg/cm2: 0.05 μg/cm^2 on artificial diet; for mortality at 0.5 µg/cm2: 0.5 μg/cm^2 on artificial diet; for mortality at 5 µg/cm2: 5 μg/cm^2 on artificial diet
In short: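 Mortality after five to seven days at 25° C (14:10 photoperiod), averaged over eight wells per compound. Diet in each well carried 50 μg/cm^2 of dried test molecule and received one to five second-instar larvae.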

| Structure (SMILES) | pest or weed control at 50 µg/cm2 [1] [%] | pest or weed control at 50 µg/cm2 [2] [%] | also measured |
| --- | --- | --- | --- |
| C[C@@H](NC(=O)c1ccc(/C(F)=C/C(c2cc(Cl)cc(C#CC(C)(C)C)c2)C(F)(F)F)cc1C(F)(F)F)C(=O)NCC(F)(F)F (stereo partly drawn) [F212, 4-((Z)-3-(3-Chloro-5-(3,3-dimethylbut-1-yn-1-yl)phenyl)-1,4,4,4-tetrafluorobut-1-en-1-yl)-N—((R)-1-oxo-1-((2,2,2-trifluoroethyl)amino)propan-2-yl)-2-(trifluoromethyl)benzamide] | 50 to 100 | 50 to 100 | – |
| C[C@@H](NC(=O)c1ccc(/C(F)=C/C(c2cc(Cl)cc(C(F)F)c2)C(F)(F)F)cc1C(F)(F)F)C(=O)NCC(F)(F)F (stereo partly drawn) [F213, 4-((Z)-3-(3-Chloro-5-(difluoromethyl)phenyl)-1,4,4,4-tetrafluorobut-1-en-1-yl)-N—((R)-1-oxo-1-((2,2,2-trifluoroethyl)amino)propan-2-yl)-2-(trifluoromethyl)benzamide] | 50 to 100 | 50 to 100 | – |
| C[C@@H](NC(=O)c1ccc(/C(F)=C/C(c2cc(F)c(F)c(Br)c2)C(F)(F)F)cc1C(F)(F)F)C(=O)NCC(F)(F)F (stereo partly drawn) [F214, 4-((Z)-3-(3-Bromo-4,5-difluorophenyl)-1,4,4,4-tetrafluorobut-1-en-1-yl)-N—((R)-1-oxo-1-((2,2,2-trifluoroethyl)amino)propan-2-yl)-2-(trifluoromethyl)benzamide] | 50 to 100 | 50 to 100 | – |
| O=C(CNC(=O)c1ccc(/C(F)=C/C(c2ccc(F)c(F)c2)C(F)(F)F)cc1C(F)(F)F)NCC(F)(F)F (stereo not drawn) [F215, (Z)-4-(3-(3,4-difluorophenyl)-1,4,4,4-tetrafluorobut-1-en-1-yl)-N-(2-oxo-2-((2,2,2-trifluoroethyl)amino)ethyl)-2-(trifluoromethyl)benzamide] | 50 to 100 | 50 to 100 | – |
| C[C@@H](NC(=O)c1ccc(/C(F)=C/C(c2cc(F)c(F)c(C#CC(C)(C)C)c2)C(F)(F)F)cc1C(F)(F)F)C(=O)NCC(F)(F)F (stereo partly drawn) [F216, 4-((Z)-3-(3-(3,3-Dimethylbut-1-yn-1-yl)-4,5-difluorophenyl)-1,4,4,4-tetrafluorobut-1-en-1-yl)-N—((R)-1-oxo-1-((2,2,2-trifluoroethyl)amino)propan-2-yl)-2-(trifluoromethyl)benzamide] | 50 to 100 | 50 to 100 | – |
| O=C(CNC(=O)c1ccc(/C(F)=C/C(c2cc(F)c(F)c(Br)c2)C(F)(F)F)cc1C(F)(F)F)NCC(F)(F)F (stereo not drawn) [F217, (Z)-4-(3-(3-Bromo-4,5-difluorophenyl)-1,4,4,4-tetrafluorobut-1-en-1-yl)-N-(2-oxo-2-((2,2,2-trifluoroethyl)amino)ethyl)-2-(trifluoromethyl)benzamide] | 50 to 100 | 50 to 100 | – |
| O=C(CNC(=O)c1ccc(/C(F)=C/C(c2cc(Cl)c(Cl)c(Cl)c2)C(F)(F)F)cc1)NCC(F)(F)F (stereo not drawn) [FC1, (Z)—N-(2-Oxo-2-((2,2,2-trifluoroethyl)amino)ethyl)-4-(1,4,4,4-tetrafluoro-3-(3,4,5-trichlorophenyl)but-1-en-1-yl)benzamide] | – | – | mortality at 0.05 µg/cm2 [1]: 0%; mortality at 0.5 µg/cm2 [1]: 100%; mortality at 5 µg/cm2 [1]: 100%; mortality at 0.05 µg/cm2 [2]: 0%; mortality at 0.5 µg/cm2 [2]: 100%; mortality at 5 µg/cm2 [2]: 100% |
| C[C@@H](NC(=O)c1ccc(/C(F)=C/C(c2cc(Cl)c(Cl)c(Cl)c2)C(F)(F)F)cc1)C(=O)NCC(F)(F)F (stereo partly drawn) [FC2, N—((R)-1-Oxo-1-((2,2,2-trifluoroethyl)amino)propan-2-yl)-4-((Z)-1,4,4,4-tetrafluoro-3-(3,4,5-trichlorophenyl)but-1-en-1-yl)benzamide] | – | – | mortality at 0.05 µg/cm2 [1]: 0%; mortality at 0.5 µg/cm2 [1]: 100%; mortality at 5 µg/cm2 [1]: 100%; mortality at 0.05 µg/cm2 [2]: 0%; mortality at 0.5 µg/cm2 [2]: 100%; mortality at 5 µg/cm2 [2]: 100% |
| C[C@@H](NC(=O)c1ccc(/C(F)=C/C(c2ccc(Br)c(Cl)c2)C(F)(F)F)cc1C(F)(F)F)C(=O)N(C)CC(F)(F)F (stereo partly drawn) [PF26, 4-((Z)-3-(4-Bromo-3-chlorophenyl)-1,4,4,4-tetrafluorobut-1-en-1-yl]-N—((R)-1-(methyl(2,2,2-trifluoroethyl)amino)-1-oxopropan-2-yl)-2-(trifluoromethyl)benzamide] | 50 to 100 | 50 to 100 | – |
| CN(CC(F)(F)F)C(=O)C1(NC(=O)c2ccc(/C(F)=C/C(c3ccc(Br)c(Cl)c3)C(F)(F)F)cc2C(F)(F)F)CC1 (stereo not drawn) [PF28, (Z)-4-(3-(4-Bromo-3-chlorophenyl)-1,4,4,4-tetrafluorobut-1-en-1-yl]-N-(1-(methyl(2,2,2-trifluoroethyl)carbamoyl)cyclopropyl)-2-(trifluoromethyl)benzamide] | 50 to 100 | 50 to 100 | – |
| CN(CC(F)(F)F)C(=O)CNC(=O)c1ccc(/C(F)=C/C(c2cc(Cl)cc(C(F)(F)F)c2)C(F)(F)F)cc1C(F)(F)F (stereo not drawn) [PF41, (Z)-4-(3-(3-Chloro-5-(trifluoromethyl)phenyl)-1,4,4,4-tetrafluorobut-1-en-1-yl)-N-(2-(methyl(2,2,2-trifluoroethyl)amino)-2-oxoethyl)-2-(trifluoromethyl)benzamide] | 50 to 100 | 50 to 100 | – |
| C[C@@H](NC(=O)c1ccc(/C(F)=C/C(c2cc(Cl)cc(C(F)(F)F)c2)C(F)(F)F)cc1C(F)(F)F)C(=O)NCC(F)(F)F (stereo partly drawn) [PF42, 4-((Z)-3-(3-Chloro-5-(trifluoromethyl)phenyl)-1,4,4,4-tetrafluorobut-1-en-1-yl)-N-((1R)-1-oxo-1-((2,2,2-trifluoroethyl)amino)propan-2-yl)-2-(trifluoromethyl)benzamide] | 50 to 100 | 50 to 100 | – |
| C[C@@H](NC(=O)c1ccc(/C(F)=C/C(c2cc(Cl)cc(C(F)(F)F)c2)C(F)(F)F)cc1C(F)(F)F)C(=O)N(C)CC(F)(F)F (stereo partly drawn) [PF43, 4-((Z)-3-(3-Chloro-5-(trifluoromethyl)phenyl)-1,4,4,4-tetrafluorobut-1-en-1-yl)-N—((R)-1-(methyl(2,2,2-trifluoroethyl)amino)-1-oxopropan-2-yl)-2-(trifluoromethyl)benzamide] | 50 to 100 | 50 to 100 | – |
| O=C(NC1(C(=O)NCC(F)(F)F)CC1)c1ccc(/C(F)=C/C(c2cc(Cl)cc(C(F)(F)F)c2)C(F)(F)F)cc1C(F)(F)F (stereo not drawn) [PF44] | 50 to 100 | 50 to 100 | – |
| CN(CC(F)(F)F)C(=O)C1(NC(=O)c2ccc(/C(F)=C/C(c3cc(Cl)cc(C(F)(F)F)c3)C(F)(F)F)cc2C(F)(F)F)CC1 (stereo not drawn) [PF45, (Z)-4-(3-(3-Chloro-5-(trifluoromethyl)phenyl)-1,4,4,4-tetrafluorobut-1-en-1-yl)-N-(1-(methyl(2,2,2-trifluoroethyl)carbamoyl)cyclopropyl)-2-(trifluoromethyl)benzamide] | 50 to 100 | 50 to 100 | – |
| Cc1cc(C(/C=C(\F)c2ccc(C(=O)NCC(=O)N(C)CC(F)(F)F)c(C(F)(F)F)c2)C(F)(F)F)ccc1Cl (stereo not drawn) [PF47, (Z)-4-(3-(4-Chloro-3-methylphenyl)-1,4,4,4-tetrafluorobut-1-en-1-yl)-N-(2-(methyl(2,2,2-trifluoroethyl)amino]-2-oxoethyl)-2-(trifluoromethyl)benzamide] | 50 to 100 | 50 to 100 | – |
| Cc1cc(C(/C=C(\F)c2ccc(C(=O)N[C@H](C)C(=O)NCC(F)(F)F)c(C(F)(F)F)c2)C(F)(F)F)ccc1Cl (stereo partly drawn) [PF48] | 50 to 100 | 50 to 100 | – |
